Consider one compound from patent publication US8394785B2, “Methods for the treatment and amelioration of urticaria” (Jado Technologies GmbH, priority 2005, dated 2013).

The test system of data set [1] is primary human mast cells (human skin). The experiment in a line: Histamine release assay, Substance P induced, primary human mast cells. The data set is classed as cell-based. The following applies: dose-dependent; not dependent on pre-incubation time. As to the method:
Tissue mast cells were isolated from human skin obtained during cosmetic surgery. Use of human skin was conducted according to the Declaration of Helsinki Principles and was approved by the Institutional Review Board of the Charité—Universitätsmedizin Berlin. For isolation of mast cells, the epidermis was enzymatically detached by an overnight incubation at 4° C. with dispase at a concentration of 1 mg/ml. The remaining dermis was dispersed by incubation with a mix of collagenase I and hyaluronidase for 1 h at 37° C. Dispersion was repeated three times, and the collected cells were washed. […] The final mast cell purity was >90% as measured by Toluidin blue staining. The viability of mast cells was >95% as assessed by Trypan blue staining (Grützkau et al 2000, Artuc et al 2002). The quantification of histamine levels was achieved using an automated histamine-analyser system (Firm Borgwelt Technik). The wavelength of the excitation was 355-360 nm and the emission wavelength of fluorescence measurement was 450-460 nm. The intensity of fluorescence was directly proportional to the concentration of histamine in the samples. The amount of released histamine was calculated according to the following formula: net histamine release=(release−blank)×(100/complete). […]

The test system of data set [2] is membrane integrity (lactate dehydrogenase release).
Data set [3] concerns Rat basophilic leukemia (RBL-2H3) cells. The experiment in a line: Mast cell degranulation assay (β-hexosaminidase release). The data set is classed as cell-based. The settings on record: Rattus norvegicus. As to the method: The assay measures release of β-hexosaminidase as a marker of release of various preformed pharmacological agents in response to clustering of the high affinity IgE receptor (FcεRI) by means of multivalent antigen-IgE complexes. Rat basophilic leukemia (RBL-2H3) cells, a commonly used model of mast cell degranulation, are sensitized with anti-DNP specific IgE and challenged with multivalent DNP-BSA. The release of β-hexosaminidase into the supernatant is measured by enzymatic conversion of the fluorogenic substrate 4-methylumbelliferyl-N-acetyl-β-D-glucosaminide to N-acetyl-β-D-glucosamine and highly fluorescent methylumbelliferone and quantified by fluorescence detection in a Tecan Safire™ plate reader.
RBL-2H3 cells obtained from the German Collection of Microorganisms and Cell Cultures (Braunschweig, Germany) were maintained in 70% Minimum Essential Medium with Earle's Salts/20% RPMI 1640/10% heat-inactivated fetal calf serum) supplemented with 2 mM GlutaMAX™-I in 5% CO2 at 37° C. and routinely checked to be free of mycoplasma contamination. Cells grown in 175 cm^2 flasks were split with 0.05% Trypsin/EDTA and resuspended in 20 ml fresh medium. One hundred and 50 μl cell suspension were plated per well into 24 well cluster plates (Costar, Schiphol-Rijk, Netherlands) and cells were used one or two days after plating, respectively.
Two to 24 hours before incubation with test compounds the medium was removed and cells were sensitized with 0.4 μg/ml anti-DNP IgE in fresh medium. Following sensitization, cells were washed once with warm TyB and incubated for 60 min with test compound at a maximum of 100 μM or the highest non-toxic concentration (total vehicle concentration adjusted to 1%) or 1% vehicle in TyB at 37° C. DNP-HSA (0.1 μg/ml final concentration) or buffer alone was added and cells incubated for 15 min at 37° C. Plates were centrifuged at 4° C. for 5 min at 250×g and immediately transferred to ice. Supernatants were collected and the cells lysed with lysis buffer. Hexosaminidase activity in supernatants and lysates was measured by incubating 25 μl aliquots with 100 μl MUG substrate solution in a 96-well plate at 37° C. for 30 min. The reaction was terminated by addition of 150 μl stop solution. Fluorescence was measured in a Tecan Safire™ plate reader at 365 nm excitation and 440 nm emission settings.
Each compound is tested in duplicates in at least three independent experiments. β-hexosaminidase release is calculated after subtraction of unspecific release (release without addition of antigen) using the formula: % degranulation=100×RFU supernatant/RFU lysate
Inhibition of β-hexosaminidase release with respect to control is calculated as
follows: % inhibition=100×(1−(RFU supernatant of compound/RFU supernatant of control))

Molecules are shown by their SMILES.

Take `CCCCCCCCCCCCCCCCOP(=O)([O-])OCC[N+](C)(C)C` [Compound 3, 1-hexadecylphosphoryl-choline]: the “inhibition of Substance P induced histamine release” value in data set [1] was 45%. The CD50 in data set [2] is 69.5 µM. The IC50 in data set [3] (1 h, concentration at which 50% of maximal inhibition is reached, RBL-2H3, 60 min incubation with compound, DNP antigen challenge, read-out: ID50 (the source's name)) came to 4.6 µM. In addition, in data set [3] (RBL-2H3, 10 μM, read-out: maximum inhibition (concentration used)), the inhibition at 10 µM is 87%. The inhibition at 25 µM in data set [3] (RBL-2H3, at or 25 μM, read-out: inhibition of degranulation) is over 75%.
